Tested on: KRAS patient-derived spheroids with HUVEC/MSC, viability
Test: Anticancer human tumor 941728-121-R-J1-PDC patient-derived lung adenocarcinoma cell line growth inhibition [KRAS2]
Conditions: for IC50: curve of first compound; for viability, T/C: stronger effect = lower value
Summary of the method: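 Combination screen of spheroid viability in tumor-cell co-cultures with endothelial (HUVEC) and mesenchymal stem cell stroma. Each agent was tested in half-log dilutions, topping at clinical Cmax or at 10 microM without a known Cmax.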

[1] = second compound 0.0316 µM, first compound 0.0316 µM
[2] = second compound 0.0316 µM, first compound 0.1 µM
[3] = second compound 0.0316 µM, first compound 0.316 µM
[4] = second compound 0.0316 µM, first compound 1 µM
[5] = second compound 0.0316 µM, first compound 3.16 µM
[6] = second compound 0.0316 µM, first compound 10 µM
[7] = second compound 0.1 µM, first compound 0.0316 µM
[8] = second compound 0.1 µM, first compound 0.1 µM
[9] = second compound 0.1 µM, first compound 0.316 µM
[10] = second compound 0.1 µM, first compound 1 µM
[11] = second compound 0.1 µM, first compound 3.16 µM
[12] = second compound 0.1 µM, first compound 10 µM
[13] = second compound 0.316 µM, first compound 0.0316 µM
[14] = second compound 0.316 µM, first compound 0.1 µM
[15] = second compound 0.316 µM, first compound 0.316 µM
[16] = second compound 0.316 µM, first compound 1 µM
[17] = second compound 0.316 µM, first compound 3.16 µM
[18] = second compound 0.316 µM, first compound 10 µM
[19] = second compound 1 µM, first compound 0.0316 µM
[20] = second compound 1 µM, first compound 0.1 µM
[21] = second compound 1 µM, first compound 0.316 µM
[22] = second compound 1 µM, first compound 1 µM
[23] = second compound 1 µM, first compound 3.16 µM
[24] = second compound 1 µM, first compound 10 µM
[25] = second compound 3.16 µM, first compound 0.0316 µM
[26] = second compound 3.16 µM, first compound 0.1 µM
[27] = second compound 3.16 µM, first compound 0.316 µM
[28] = second compound 3.16 µM, first compound 1 µM
[29] = second compound 3.16 µM, first compound 3.16 µM
[30] = second compound 3.16 µM, first compound 10 µM
[31] = second compound 0.1 µM, first compound 0.01 µM
[32] = second compound 0.316 µM, first compound 0.01 µM
[33] = second compound 1 µM, first compound 0.01 µM
[34] = second compound 3.16 µM, first compound 0.01 µM
[35] = second compound 10 µM, first compound 0.01 µM
[36] = second compound 10 µM, first compound 0.0316 µM
[37] = second compound 10 µM, first compound 0.1 µM
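Note: spheroids exposed to agents for seven days before readout.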

CC1OCC2(CCN(c3cnc(Sc4ccnc(N)c4Cl)c(N)n3)CC2)C1N (stereo not given) + C=CC(=O)N1CCN(c2nc(OCC3CCCN3C)nc3c2CCN(c2cccc4cccc(C)c24)C3)CC1CC#N
IC50 (second compound 0.0316 µM): < 31.6 nM | IC50 (second compound 0.1 µM): < 31.6 nM | IC50 (second compound 0.316 µM): < 31.6 nM | IC50 (second compound 1 µM): < 31.6 nM | IC50 (second compound 3.16 µM): < 31.6 nM | viability, T/C [1]: 32.3% | viability, T/C [2]: 28.9% | viability, T/C [3]: 25.4% | viability, T/C [4]: 26.4% | viability, T/C [5]: 23.6% | viability, T/C [6]: 18.4% | viability, T/C [7]: 31.4% | viability, T/C [8]: 28.9% | viability, T/C [9]: 25.6% | viability, T/C [10]: 26.3% | viability, T/C [11]: 25.4% | viability, T/C [12]: 20.6% | viability, T/C [13]: 32.8% | viability, T/C [14]: 30.8% | viability, T/C [15]: 28% | viability, T/C [16]: 26.9% | viability, T/C [17]: 25.1% | viability, T/C [18]: 23.7% | viability, T/C [19]: 32.8% | viability, T/C [20]: 34.8% | viability, T/C [21]: 32.7% | viability, T/C [22]: 28.2% | viability, T/C [23]: 29.1% | viability, T/C [24]: 28.4% | viability, T/C [25]: 4.61% | viability, T/C [26]: 10.1% | viability, T/C [27]: 4.45% | viability, T/C [28]: 4.43% | viability, T/C [29]: 4.99% | viability, T/C [30]: 9.3%

Cn1nccc1Nc1nccc(-c2cc3c(s2)C(C)(C)N(CCN2CCOCC2)C3=O)n1 + C=CC(=O)N1CCN(c2nc(OCC3CCCN3C)nc3c2CCN(c2cccc4cccc(C)c24)C3)CC1CC#N
IC50 (second compound 0.0316 µM): < 31.6 nM | IC50 (second compound 0.1 µM): < 31.6 nM | IC50 (second compound 0.316 µM): < 31.6 nM | IC50 (second compound 1 µM): < 31.6 nM | IC50 (second compound 3.16 µM): < 31.6 nM | viability, T/C [1]: 29.5% | viability, T/C [2]: 28.2% | viability, T/C [3]: 25.1% | viability, T/C [4]: 19.9% | viability, T/C [5]: 22.3% | viability, T/C [6]: 29.2% | viability, T/C [7]: 26.6% | viability, T/C [8]: 24.5% | viability, T/C [9]: 22.1% | viability, T/C [10]: 18.8% | viability, T/C [11]: 20.7% | viability, T/C [12]: 28.4% | viability, T/C [13]: 26.1% | viability, T/C [14]: 24.2% | viability, T/C [15]: 21.4% | viability, T/C [16]: 21.9% | viability, T/C [17]: 19.1% | viability, T/C [18]: 29.2% | viability, T/C [19]: 27.1% | viability, T/C [20]: 26.8% | viability, T/C [21]: 23% | viability, T/C [22]: 29.2% | viability, T/C [23]: 22.2% | viability, T/C [24]: 34.1% | viability, T/C [25]: 1.07% | viability, T/C [26]: 0.7% | viability, T/C [27]: 1.22% | viability, T/C [28]: 1.67% | viability, T/C [29]: 0.97% | viability, T/C [30]: 0.27%

CC(=O)OC12COC1CC(O)C1(C)C(=O)C(O)C3=C(C)C(OC(=O)C(O)C(NC(=O)OC(C)(C)C)c4ccccc4)CC(O)(C(OC(=O)c4ccccc4)C21)C3(C)C (stereo not given) + CC1OCC2(CCN(c3cnc(Sc4ccnc(N)c4Cl)c(N)n3)CC2)C1N
IC50 (second compound 0.1 µM): < 10 nM | IC50 (second compound 0.316 µM): < 10 nM | IC50 (second compound 1 µM): < 10 nM | IC50 (second compound 3.16 µM): < 10 nM | IC50 (second compound 10 µM): < 10 nM | viability, T/C [31]: 42.3% | viability, T/C [7]: 34.6% | viability, T/C [8]: 33.9% | viability, T/C [9]: 39.2% | viability, T/C [10]: 39.5% | viability, T/C [11]: 41.6% | viability, T/C [32]: 37.1% | viability, T/C [13]: 34.4% | viability, T/C [14]: 30.2% | viability, T/C [15]: 32.1% | viability, T/C [16]: 37.2% | viability, T/C [17]: 38.9% | viability, T/C [33]: 49.8% | viability, T/C [19]: 52.4% | viability, T/C [20]: 44% | viability, T/C [21]: 45.9% | viability, T/C [22]: 53.4% | viability, T/C [23]: 54% | viability, T/C [34]: 24.4% | viability, T/C [25]: 23.3% | viability, T/C [26]: 21.5% | viability, T/C [27]: 27.3% | viability, T/C [28]: 29.8% | viability, T/C [29]: 27.4% | viability, T/C [35]: 26.5% | viability, T/C [36]: 25.6% | viability, T/C [37]: 23.1% | viability, T/C (second compound 10 µM, first compound 0.316 µM): 24.8% | viability, T/C (second compound 10 µM, first compound 1 µM): 30.1% | viability, T/C (second compound 10 µM, first compound 3.16 µM): 30.2%

CN(C)C/C=C/C(=O)Nc1cc2c(Nc3ccc(F)c(Cl)c3)ncnc2cc1O[C@H]1CCOC1 + CC1OCC2(CCN(c3cnc(Sc4ccnc(N)c4Cl)c(N)n3)CC2)C1N
IC50 (second compound 0.1 µM): < 0.316 nM | IC50 (second compound 0.316 µM): < 0.316 nM | IC50 (second compound 1 µM): > 100 nM | IC50 (second compound 3.16 µM): < 0.316 nM | IC50 (second compound 10 µM): 0.52 nM | viability, T/C (second compound 0.1 µM, first compound 0.000316 µM): 38.3% | viability, T/C (second compound 0.1 µM, first compound 0.001 µM): 41.9% | viability, T/C (second compound 0.1 µM, first compound 0.00316 µM): 45.5% | viability, T/C [31]: 44.5% | viability, T/C [7]: 41.4% | viability, T/C [8]: 43.3% | viability, T/C (second compound 0.316 µM, first compound 0.000316 µM): 33.7% | viability, T/C (second compound 0.316 µM, first compound 0.001 µM): 35.2% | viability, T/C (second compound 0.316 µM, first compound 0.00316 µM): 43.1% | viability, T/C [32]: 42.3% | viability, T/C [13]: 45.8% | viability, T/C [14]: 41.2% | viability, T/C (second compound 1 µM, first compound 0.000316 µM): 70.1% | viability, T/C (second compound 1 µM, first compound 0.001 µM): 52.4% | viability, T/C (second compound 1 µM, first compound 0.00316 µM): 63.1% | viability, T/C [33]: 70.6% | viability, T/C [19]: 58.4% | viability, T/C [20]: 51.9% | viability, T/C (second compound 3.16 µM, first compound 0.000316 µM): 29.7% | viability, T/C (second compound 3.16 µM, first compound 0.001 µM): 28.3% | viability, T/C (second compound 3.16 µM, first compound 0.00316 µM): 30.2% | viability, T/C [34]: 31.6% | viability, T/C [25]: 31.3% | viability, T/C [26]: 36.7% | viability, T/C (second compound 10 µM, first compound 0.000316 µM): 54.6% | viability, T/C (second compound 10 µM, first compound 0.001 µM): 45% | viability, T/C (second compound 10 µM, first compound 0.00316 µM): 30.6% | viability, T/C [35]: 52.5% | viability, T/C [36]: 31.3% | viability, T/C [37]: 31%
